From patent US20240058268A1, “METHODS OF TREATING SKIN DISORDERS” (priority 2021, published 2024)

Experiments:
Type in all cases: in vivo, human
[1] = tested on: acne papule biopsies, Diseases or Functions Annotation; test: Ingenuity Pathway Analysis, diseases or functions activation of the trifarotene signature; conditions: trifarotene treated area (day 27) vs papule before treatment
Experimental: Functional and network analysis were generated with the Ingenuity Pathway Analysis software (QIAGEN® Inc., qiagenbioinformatics.com/products/ingenuity-pathway-analysis), and with Open Targets (opentargets.org/). IPA was used to identify canonical pathways, diseases and functions, and gene networks related to differentially expressed genes in acne lesions and post-lesional skin after treatment with trifarotene or vehicle. In addition, gene set enrichment analysis was performed with the R package FGSEA (version 1.12.0) using the hallmark and reactome gene sets. A comparative analysis was performed to identify expression patterns: For this analysis, the following comparisons were made to develop characteristic expression patterns: (a) Papule before treatment vs non-involved skin was used to derive an acne signature; (b) Resolved papule zone after treated with vehicle vs papule before treatment was used to derive signature of spontaneously resolved papule; and (c) Resolved papule zone after treatment with trifarotene vs papule before treatment to determine trifarotene treatment signature. […]

[2] = tested on: cell types in skin biopsies (macrophage subsets, B cells, melanocytes, venular cells); test: Cell type scoring (cell-type gene signature expression scores in biopsies)
Description: Single-Cell Analysis and Cell Marker Definition: Single-cell RNAseq data from Hughes et al. was used to determine the major cell types present in skin biopsies and the associated cell markers. Acne and normal samples from GSE150672 were downloaded and analyzed using the Seurat package. Data were normalized, scaled, and log-transformed. The most variable genes were selected based on their expression and dispersion. To reduce dimensionality, principal component analysis (PCA) was applied. The first eight principal components were used to cluster the cells using the graph-based approach FindClusters function in Seurat, with a resolution parameter of 0.4. Graphical representation of cell clusters was achieved using UMAP. A combination of known markers and differentially expressed genes was used to characterize cell clusters. Major cell type markers retained for scoring analysis included: B cells: MS4A1, CD79A; Fibroblasts: DCN, COL6A2, APOD, CFD, IGFBP5, COL1A2, COL1A1, COL3A1; Keratinocytes: KRT5, KRT1, KRT14, KRT15, S100A2, KRT6A, HOPX, KRT10, DSP; Langerhans cells: CD207; Mast cells: CPA3, IL1RL1, CTSG, TPSAB1, GATA2; Melanocytes: MLANA, MITF, PMEL, DCT; Myeloid cells: CD68, CTSS; Schwann cells: SCN7A; T cells: CD3D, TRBC2, IL7R, PTPRC, CXCR4; Venular cells: SELE, CD93, TM4SF1, A2M, RCAN1; Vascular smooth muscle cells (VSMC): TAGLN, RGS5, MYH11, ACTA2, MYL9.
Macrophage Gene Signatures: Gene markers specific to each class of macrophage were derived from the literature. For M0, M1 and M2 macrophages, the markers described in Newman et al. (Robust enumeration of cell subsets from tissue expression profiles, Nat Methods, 12:453-7, 2015) were used. For SPP1 activated macrophages, the markers from Morse et al. (Proliferating SPP1/MERTK-expressing macrophages in idiopathic pulmonary fibrosis. Eur Respir J., 54:1802441) were used. Final markers were as listed. M0 macrophage: ACP5, BHLHE41, C5AR1, CCDC102B, CCL22, CCL7, COL8A2, CSF1, CXCL3, CXCL5, CYP27A1, DCSTAMP, GPC4, HK3, IGSF6, MARCO, MMP9, NCF2, PLA2G7, PPBP, QPCT, SLAMF8, SLC12A8, TNFSF14, VNN1. M1 macrophage: ACHE, APOBEC3A, APOL3, APOL6, ARRB1, CCL19, CCL5, CCR7, CD38, CD40, CHI3L1, CXCL10, CXCL11, CXCL13, CXCL9, CYP27B1, DHX58, HESX1, IDO1, IFI44L, IL2RA, KIAA0754, KYNU, LAG3, LAMP3, LILRA3, LILRB2, NOD2, PLA1A, PTGIR, RASSF4, RSAD2, SLAMFI, SLC2A6, SOCS1, TLR7, TNFAIP6, TNIP3, TRPM4. M2 macrophage: AIF1, ALOX15, CCL13, CCL14, CCL23, CD209, CD4, CFP, CLEC10A, CLEC4A, CRYBB1, FES, FRMD4A, FZD2, GSTT1, HRH1, HTR2B, MS4A6A, NME8, NPL, P2RY13, PDCD1LG2, RENBP, WNT5B. SPP1 macrophage: MERTK, CD14, SPP1, CD68, LYZ.
Cell Type Scoring: Each cell type gene signature was used to define a cell type average gene expression in each of our clinical study samples, calculated as the average of the log 2 expression values of these markers. Boxplots were used to visualize the distribution of cell type gene expression scores between clinical groups. Statistical significance was assessed using Wilcoxon rank sum test. Graphs were generated using the ggpubr data visualization library.

[3] = tested on: acne papule biopsies, gene sets; test: Gene set enrichment analysis (FGSEA, hallmark and reactome gene sets); conditions: inflammatory response, TNFA signaling via NF-kB, neutrophil degranulation, chemokines and receptors; collagen degradation, extracellular matrix degradation/organization
Experimental: Functional and network analysis were generated with the Ingenuity Pathway Analysis software (QIAGEN® Inc., qiagenbioinformatics.com/products/ingenuity-pathway-analysis), and with Open Targets (opentargets.org/). IPA was used to identify canonical pathways, diseases and functions, and gene networks related to differentially expressed genes in acne lesions and post-lesional skin after treatment with trifarotene or vehicle. In addition, gene set enrichment analysis was performed with the R package FGSEA (version 1.12.0) using the hallmark and reactome gene sets.

CC(C)(C)c1cc(-c2cc(-c3ccc(C(=O)O)cc3)ccc2OCCO)ccc1N1CCCC1 [Trifarotene, 3″-tert-Butyl-4′-(2-hydroxy-ethoxy)-4″-pyrrolidin-1-yl-[1,1′,3′,1″ ]terphenyl-4-carboxylic acid]
Activation z.score Trifarotene signature: Flux of Ca2+ [1]: −2.838
venular cells ([2]; following trifarotene treatment): trend toward a decrease
M0, M1 and M2 macrophages ([2]; spontaneously resolved vs trifarotene treated biopsies): not significantly different
increase in melanocytes ([2]; trifarotene treated vs spontaneously resolved acne lesions): greater in the trifarotene treated samples
B cell frequencies ([2]; trifarotene treatment vs. spontaneous resolution): greater impact in reducing B cell frequencies
frequencies of SPP1+ macrophages ([2]; trifarotene treatment vs. spontaneously resolved acne papules, P=0.040): significantly reduced
gene set enrichment: inflammatory modules and tissue remodeling gene sets [3]: downregulates
